Experimental data reported in patent US20230142126A1, “METHODS AND COMPOSITIONS FOR THE TREATMENT OF VIRAL DISEASES” (priority 2020, published 2023).
pEC50: −log10 of the molar value. “And” between values parts separate entries of the source, which are not always exact repeats. Identical values can stand only once. Like-named read-outs stand apart in the source and are kept apart here.

Tests used:
[1] = test system: SARS-CoV-2; test: microbe, parasite or virus in culture; assay type: cell-based; conditions: for pEC50 / EC90: Calu-3, plaque assay; for EC90: estimated
[2] = test system: SARS-CoV-2 (strain: BEI_USA-WA1/2020); test: microbe, parasite or virus in culture; assay type: cell-based; conditions: Calu-3, 4 h pretreatment
[3] = test system: Measles; test: CPE antiviral assay (MTS), Measles in MRC-5 cells; assay type: cell-based, Measles Virus (Edmonston); conditions: CPE 10 days, at the concentrations tested
Procedure: (§1) Viruses and cells were mixed in the presence of Balicatib (HB-121) and incubated for the assay duration as specified in Table 1. […] An antiviral effect or cytoprotective effect was considered to be observed when therapeutic agent (Balicatib or positive control indicated in Table 1) prevented virus replication. A standardized plate format was used for cytoprotective assays. […] Samples were evaluated for antiviral efficacy with triplicate measurements to determine cytotoxicity, if detectable. […]
(§2) At assay termination, the assay plates were stained with the soluble tetrazolium-based dye MTS (CellTiter®96 Reagent, Promega) to determine cell viability and quantify compound toxicity. MTS is metabolized by the mitochondrial enzymes of metabolically active cells to yield a soluble formazan product, allowing the rapid quantitative analysis of cell viability and compound cytotoxicity. […] Adhesive plate sealers were used in place of the lids, the sealed plates were inverted several times to mix the soluble formazan product and the plate was read spectrophotometrically at 490/650 nm with a Molecular Devices SpectraMax i3 plate reader. […]

[4] = test system: Respiratory syncytial virus (RSV); test: CPE antiviral assay (MTS), RSV in HEp-2 cells; assay type: cell-based, Long; conditions: CPE 5 days, at the concentrations tested
Procedure: as §1, §2

[5] = Plasma concentration of Balicatib after oral dosing, based on human clinical dosing; conditions: 400 mg oral dosing, EC50 against SARS-CoV-2
[6] = test system: Rhinovirus 14 (HRV 14); test: CPE antiviral assay (MTS), Rhinovirus 14 in H1 HeLa cells; assay type: cell-based, strain 1059; conditions: 33° C., CPE 4 days, at the concentrations tested
[7] = test system: HIV-1 (IIIB); test: CPE antiviral assay (MTS), HIV-1 in MT-4 cells; assay type: cell-based; conditions: CPE 6 days, at the concentrations tested
Procedure: as §1, §2

[8] = test system: SARS-CoV-2 hCoV-19/USA/WA1/2020; assay type: cell-based
[9] = test system: Coxsackie (A7) (CoxA7); test: CPE antiviral assay (MTS), Coxsackie A7 in LLC-MK2 7.1 cells; assay type: cell-based; conditions: CPE 4 days, at the concentrations tested
[10] = test system: Parainfluenza Type 3; test: CPE antiviral assay (MTS), Parainfluenza in LLC-MK2 7.1 cells; assay type: cell-based, Parainfluenza Type 3 C243; conditions: CPE 7 days, at the concentrations tested
Procedure: as §1, §2

[11] = test system: Enterovirus 71; test: CPE (cytoprotection) antiviral assay with MTS readout, Enterovirus 71 in RD cells; assay type: cell-based, Enterovirus (EV-71(H)), strain 71H; conditions: for pEC50: 50% inhibition of virus replication, read-out: EC 50% (EC50)
Procedure: Viruses and cells were mixed in the presence of Balicatib (HB-121) and incubated for the assay duration as specified in Table 1. […] An antiviral effect or cytoprotective effect was considered to be observed when therapeutic agent (Balicatib or positive control indicated in Table 1) prevented virus replication. A standardized plate format was used for cytoprotective assays. Each plate contained cell control wells (cells only), virus control wells (cells plus virus), therapeutic agent cytotoxicity wells (cells plus therapeutic agent only), therapeutic agent colorimetric control wells (therapeutic agent only), background control wells (media only), as well as experimental wells (therapeutic agent plus cells plus virus). Samples were evaluated for antiviral efficacy with triplicate measurements to determine cytotoxicity, if detectable. […] Interferon (IFN) was used as positive controls in the assays were noted as IU/mL (bioactivity defined by International Units/mL was used from the certificate of analysis information provided by the vendor, PBL Assay Science, Piscataway, NJ). In Table 2, fields labeled as “Drug 1” or “Drug 2” indicate Cells + Virus + Drug; fields labeled as “Tox 1” or “Tox 2” indicate Cells + Drug 1 or Drug 2, respectively (toxicity tested in duplicate); Cells labeled as “Color 1” or “Color 2” = Media + Drug 1 or Drug 2, respectively (colorimetric background, no cells).
At assay termination, the assay plates were stained with the soluble tetrazolium-based dye MTS (CellTiter®96 Reagent, Promega) to determine cell viability and quantify compound toxicity. MTS is metabolized by the mitochondrial enzymes of metabolically active cells to yield a soluble formazan product, allowing the rapid quantitative analysis of cell viability and compound cytotoxicity. […] At termination of the assay, 10-25 µL of MTS reagent was added per well (10% final concentration based on volume) and the microtiter plates were then incubated for 2-3 hours at 37° C., (except Rhinovirus assay plates, which were incubated at 33° C.) 5% CO2 to assess cell viability. Adhesive plate sealers were used in place of the lids, the sealed plates were inverted several times to mix the soluble formazan product and the plate was read spectrophotometrically at 490/650 nm with a Molecular Devices SpectraMax i3 plate reader.
Using an in-house computer program, the CPE data analysis was conducted and included the calculation of EC50 (50% inhibition of virus replication), EC95 (95% inhibition of virus replication), CC50 (50% cytotoxicity), CC95 (95% cytotoxicity) and selectivity index values (SI = CC/EC; also referred to as Antiviral Index or AI).
The minimum inhibitory drug concentration that reduced plaque formation by 50% (EC50) and the minimum drug concentration that inhibited cell growth by 50% (CC50) were calculated. The selectivity index (SI) for each active compound was determined by dividing the CC50 by the EC50.

[12] = test system: Adenovirus (Type 5); test: CPE antiviral assay (MTS), Adenovirus in HeLa cells; assay type: cell-based; conditions: CPE 6 days, at the concentrations tested
[13] = test system: Calu-3 human cells
[14] = test system: Influenza B (Flu B.Bris); test: CPE antiviral assay (MTS), Influenza B in MDCK cells; assay type: cell-based; conditions: CPE 3 days, at the concentrations tested
[15] = test system: Dengue virus, serotype 2 (DENV2); test: CPE antiviral assay (MTS), Dengue virus in BHK-21 cells; assay type: cell-based, New Guinea C; conditions: CPE 5 days, at the concentrations tested
Procedure: as §1, §2

[16] = in vitro; conditions: human
[17] = test system: Influenza A (Flu A. Cal); test: CPE antiviral assay (MTS), Influenza A in MDCK cells; assay type: cell-based, A/California/07/2009; conditions: CPE 3 days, at the concentrations tested
Procedure: as §1, §2

[18] = test system: RD cells; test: Cytotoxicity assay (MTS dye reduction) in the cells of the Enterovirus assay; assay type: cell-based; conditions: RD cells, 4 days
Procedure: (§3) Viruses and cells were mixed in the presence of Balicatib (HB-121) and incubated for the assay duration as specified in Table 1. […] An antiviral effect or cytoprotective effect was considered to be observed when therapeutic agent (Balicatib or positive control indicated in Table 1) prevented virus replication. A standardized plate format was used for cytoprotective assays. Each plate contained cell control wells (cells only), virus control wells (cells plus virus), therapeutic agent cytotoxicity wells (cells plus therapeutic agent only), therapeutic agent colorimetric control wells (therapeutic agent only), background control wells (media only), as well as experimental wells (therapeutic agent plus cells plus virus). Samples were evaluated for antiviral efficacy with triplicate measurements to determine cytotoxicity, if detectable. […] Interferon (IFN) was used as positive controls in the assays were noted as IU/mL (bioactivity defined by International Units/mL was used from the certificate of analysis information provided by the vendor, PBL Assay Science, Piscataway, NJ). […]
as §2
(§4) Cells were seeded at 2,500 to 40,000 cells per well in 96-well plates in replication medium as specified in Table 3. […] After the assay readout (duration) as specified in Table 1, cell viability was determined using MTS dye reduction. […]

[19] = as above; assay type: cell-based; conditions: human
Procedure: as §3, §2, §4

[20] = Severe acute respiratory syndrome coronavirus 2

SMILES: C[C@@H]1CS/C(=N\NC(=O)C(=O)[C@@H](NC(=O)C2CCCCCC2)C2CCOCC2)N1C [ONO-5334]
- % Inhibition ([1]; 1 µM (Table 7)): 79%
- % Inhibition ([1]; 10 µM (Table 7)): 100%
- pEC50 ([1]; estimated from 1 and 10 µM): > 6.00
- antiviral activity (percentage of virus infected cells vs concentration) ([2]; MOI 0.01, 48 h post-infection (FIG. 2, FIG. 3)): demonstrated antiviral activity

SMILES: CCCN1CCN(c2ccc(C(=O)NC3(C(=O)NCC#N)CCCCC3)cc2)CC1 [Balicatib]
- antiviral efficacy [3]: not effective
- Overall % Inhibition (average of two experiments) Combined ([1]; 100 nM, 0.1 µM): 57.75%
- Overall % Inhibition (average of two experiments) Combined ([1]; 10 µM): 99.4%
- Selectivity Index (SI) ([1]; Calu-3 cells, calculated from CC50 and EC50): > 300
- inhibition at 0.1 µM ([1]; Severe acute respiratory syndrome coronavirus 2, Calu-3, 100 nM, read-out: Overall % Inhibition (average of two experiments) Combined): ~57%
- inhibition at 0.3 µM ([1]; Severe acute respiratory syndrome coronavirus 2, Calu-3, 300 nM, read-out: Overall % Inhibition (average of two experiments) Combined): 90%
- inhibition at 1 µM ([1]; Severe acute respiratory syndrome coronavirus 2, Calu-3, 1 µM, read-out: Overall % Inhibition (average of two experiments) Combined): ~68%
- inhibition at 3 µM ([1]; Severe acute respiratory syndrome coronavirus 2, Calu-3, 3 µM, read-out: Overall % Inhibition (average of two experiments) Combined): ~100%
- inhibition at 10 µM ([1]; Severe acute respiratory syndrome coronavirus 2, Calu-3, 10 µM, read-out: Overall % Inhibition (average of two experiments) Combined): ~100%
- inhibition at 30 µM ([1]; Severe acute respiratory syndrome coronavirus 2, Calu-3, 30 µM, read-out: Overall % Inhibition (average of two experiments) Combined): ~100%
- inhibition at 0.1 µM ([1]; Severe acute respiratory syndrome coronavirus 2, Calu-3, 72 h, 100 nM, MOI 0.1, 72 h, read-out: % Inhibition Experiment 1): 97.3%
- inhibition at 0.1 µM ([1]; Severe acute respiratory syndrome coronavirus 2, Calu-3, 72 h, 100 nM, MOI 0.1, 72 h, read-out: % Inhibition Experiment 2): 18%
- inhibition at 0.3 µM ([1]; Severe acute respiratory syndrome coronavirus 2, Calu-3, 72 h, 300 nM, MOI 0.1, 72 h, read-out: % Inhibition Experiment 2): 90%
- inhibition at 1 µM ([1]; Severe acute respiratory syndrome coronavirus 2, Calu-3, 72 h, 1 µM, MOI 0.1, 72 h, read-out: % Inhibition Experiment 1): 64%
- inhibition at 1 µM ([1]; Severe acute respiratory syndrome coronavirus 2, Calu-3, 72 h, 1 µM, MOI 0.1, 72 h, read-out: % Inhibition Experiment 2): 72.5%
- inhibition at 3 µM ([1]; Severe acute respiratory syndrome coronavirus 2, Calu-3, 72 h, 3 µM, MOI 0.1, 72 h, read-out: % Inhibition Experiment 2): 100%
- inhibition at 10 µM ([1]; Severe acute respiratory syndrome coronavirus 2, Calu-3, 72 h, 10 µM, MOI 0.1, 72 h, read-out: % Inhibition Experiment 1): 98.8%
- inhibition at 10 µM ([1]; Severe acute respiratory syndrome coronavirus 2, Calu-3, 72 h, 10 µM, MOI 0.1, 72 h, read-out: % Inhibition Experiment 2): 100%
- inhibition at 30 µM ([1]; Severe acute respiratory syndrome coronavirus 2, Calu-3, 72 h, 30 µM, MOI 0.1, 72 h, read-out: % Inhibition Experiment 2): 100%
- EC90 [1, 20]: 1 to 3 µM
- pEC50 ([1]; Severe acute respiratory syndrome coronavirus 2, estimated from two studies): 6.22 to 7.30
- antiviral efficacy [4]: not effective
- time plasma concentration is above EC50 [5]: 16 to 20 h
- antiviral efficacy [6]: not effective
- antiviral efficacy [7]: not effective
- titer reduction in virus titer (TCID50) ([8]; 0.3 µM (lowest test concentration), A549-hACE2, MOI 0.1, 24 hours): > 3 log
- titer reduction vs virus without Balicatib (TCID50) ([8]; 5 µM, A549-hACE2, MOI 0.1, 24 hours): more than 6 log
- reduction of SARS-CoV-2 WA1/2020 ([8]; A549-hACE2 cells, 24 hours): significant reduction
- antiviral efficacy [9]: not effective
- pEC50 ([2]; Severe acute respiratory syndrome coronavirus 2, MOI 0.01, 48 h post-infection, % infected cells (FIG. 1), read-out: approximate EC50): 6.30 to 6.60
- antiviral efficacy [10]: not effective
- EC 25% ([11]; 25% inhibition of virus replication, RD cells, CPE 4 days): 5.85 µM
- pEC50 ([11]; RD cells, CPE 4 days, listed as HB-121): 4.66
- EC 95% (EC95) ([11]; 95% inhibition of virus replication, RD cells, CPE 4 days): >30.0 µM
- pEC50 ([11]; Enterovirus A, RD, 96 h, RD cells, CPE 4 days): ~4.70
- Selectivity Index (SI) 50% ([11]; SI = CC50/EC50): >1.36
- Selectivity Index (SI) 25% ([11]; SI = CC/EC at 25%): >5.13
- antiviral efficacy [12]: not effective
- Cell Appearance ([13]; 100 µM (Table 6)): No CPEs
- Viability (%) at 24 hr time point ([13]; 100 µM, 24 hr, 98.7% viability at seeding): 71.0% and 72.1%
- effect on cell growth ([13]; 100 µM, Calu-3): little to no effect on cell growth
- effect on cellular viability ([13]; 100 µM, Calu-3): does not alter cellular viability
- Count (cells/ml) at 24 hr time point ([13]; 100 µM, seeded at 2.0E5 per well, 24 hr): 1.8e5 cells/ml and 1.6e5 cells/ml
- antiviral efficacy [14]: not effective
- antiviral efficacy [15]: not effective
- CC50 [16]: > 100 µM
- antiviral efficacy [17]: not effective
- CC 25% ([18]; 25% cytotoxicity): > 30.0 µM
- CC 95% (CC95) ([18]; 95% cytotoxicity): > 30.0 µM
- CC50 at 4 days [19]: > 30 µM

SMILES: CC(C)(F)C[C@H](N[C@@H](c1ccc(-c2ccc(S(C)(=O)=O)cc2)cc1)C(F)(F)F)C(=O)NC1(C#N)CC1 [Odanacatib]
- inhibition at 1 µM ([1]; Severe acute respiratory syndrome coronavirus 2, Calu-3, 1 µM (Table 7), read-out: % Inhibition): 48.4%
- inhibition at 10 µM ([1]; Severe acute respiratory syndrome coronavirus 2, Calu-3, 10 µM (Table 7), read-out: % Inhibition): 97.1%
- EC90 [1, 20]: 1 to 10 µM
- pEC50 ([1]; Severe acute respiratory syndrome coronavirus 2, estimated from 1 and 10 µM): ~6.00
